# From paper PMC4412093, “Identification of a Novel Series of Potent TrkA Receptor Tyrosine Kinase Inhibitors” (International Journal of Medicinal Chemistry, 2012)
# Columns and labels:
# TrkA [1] = conditions: read-out: TrkA IC50 (reported); cited from earlier work
# TrkA human enzyme = TrkA human enzyme (Homo sapiens, UniProt P04629); assay: TrkA kinase enzyme inhibition; assay type: biochemical; conditions: for IC50: average of ≥2 experiments; for inhibition at 0.03 µM: 30 nM, read-out: TrkA % inh. at 30 nM; for inhibition at 0.03 µM / inhibition at 0.1 µM: average of ≥3 experiments; for inhibition at 0.1 µM: read-out: TrkA % inh. at 0.1 μM
# TrkA human enzyme, sequence (P04629 33-796): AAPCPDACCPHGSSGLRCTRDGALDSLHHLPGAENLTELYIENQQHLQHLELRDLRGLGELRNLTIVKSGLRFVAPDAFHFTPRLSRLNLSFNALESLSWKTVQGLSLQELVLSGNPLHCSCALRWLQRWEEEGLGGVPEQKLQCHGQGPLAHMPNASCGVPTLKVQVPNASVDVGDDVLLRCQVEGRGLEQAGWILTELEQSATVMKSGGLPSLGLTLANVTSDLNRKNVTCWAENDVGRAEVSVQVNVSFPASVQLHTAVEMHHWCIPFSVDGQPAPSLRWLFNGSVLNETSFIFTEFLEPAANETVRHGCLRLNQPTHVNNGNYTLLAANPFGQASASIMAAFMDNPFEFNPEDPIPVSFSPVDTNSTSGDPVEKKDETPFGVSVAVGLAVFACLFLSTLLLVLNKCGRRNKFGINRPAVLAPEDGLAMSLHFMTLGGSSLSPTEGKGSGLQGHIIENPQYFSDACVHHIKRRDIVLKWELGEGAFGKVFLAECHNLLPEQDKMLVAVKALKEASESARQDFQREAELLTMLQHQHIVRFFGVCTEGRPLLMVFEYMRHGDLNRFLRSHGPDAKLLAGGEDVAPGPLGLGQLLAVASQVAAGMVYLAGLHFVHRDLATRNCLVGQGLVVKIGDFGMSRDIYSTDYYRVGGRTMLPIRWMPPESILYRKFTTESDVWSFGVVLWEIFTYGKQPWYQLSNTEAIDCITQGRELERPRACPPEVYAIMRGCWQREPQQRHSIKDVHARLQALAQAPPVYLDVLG
# c-Met [2] = molecular target: T1, c-Met (Homo sapiens, UniProt P08581); assay: c-Met kinase enzyme inhibition; assay type: biochemical; conditions: average of ≥3 experiments
# T1 sequence (P08581 25-1390): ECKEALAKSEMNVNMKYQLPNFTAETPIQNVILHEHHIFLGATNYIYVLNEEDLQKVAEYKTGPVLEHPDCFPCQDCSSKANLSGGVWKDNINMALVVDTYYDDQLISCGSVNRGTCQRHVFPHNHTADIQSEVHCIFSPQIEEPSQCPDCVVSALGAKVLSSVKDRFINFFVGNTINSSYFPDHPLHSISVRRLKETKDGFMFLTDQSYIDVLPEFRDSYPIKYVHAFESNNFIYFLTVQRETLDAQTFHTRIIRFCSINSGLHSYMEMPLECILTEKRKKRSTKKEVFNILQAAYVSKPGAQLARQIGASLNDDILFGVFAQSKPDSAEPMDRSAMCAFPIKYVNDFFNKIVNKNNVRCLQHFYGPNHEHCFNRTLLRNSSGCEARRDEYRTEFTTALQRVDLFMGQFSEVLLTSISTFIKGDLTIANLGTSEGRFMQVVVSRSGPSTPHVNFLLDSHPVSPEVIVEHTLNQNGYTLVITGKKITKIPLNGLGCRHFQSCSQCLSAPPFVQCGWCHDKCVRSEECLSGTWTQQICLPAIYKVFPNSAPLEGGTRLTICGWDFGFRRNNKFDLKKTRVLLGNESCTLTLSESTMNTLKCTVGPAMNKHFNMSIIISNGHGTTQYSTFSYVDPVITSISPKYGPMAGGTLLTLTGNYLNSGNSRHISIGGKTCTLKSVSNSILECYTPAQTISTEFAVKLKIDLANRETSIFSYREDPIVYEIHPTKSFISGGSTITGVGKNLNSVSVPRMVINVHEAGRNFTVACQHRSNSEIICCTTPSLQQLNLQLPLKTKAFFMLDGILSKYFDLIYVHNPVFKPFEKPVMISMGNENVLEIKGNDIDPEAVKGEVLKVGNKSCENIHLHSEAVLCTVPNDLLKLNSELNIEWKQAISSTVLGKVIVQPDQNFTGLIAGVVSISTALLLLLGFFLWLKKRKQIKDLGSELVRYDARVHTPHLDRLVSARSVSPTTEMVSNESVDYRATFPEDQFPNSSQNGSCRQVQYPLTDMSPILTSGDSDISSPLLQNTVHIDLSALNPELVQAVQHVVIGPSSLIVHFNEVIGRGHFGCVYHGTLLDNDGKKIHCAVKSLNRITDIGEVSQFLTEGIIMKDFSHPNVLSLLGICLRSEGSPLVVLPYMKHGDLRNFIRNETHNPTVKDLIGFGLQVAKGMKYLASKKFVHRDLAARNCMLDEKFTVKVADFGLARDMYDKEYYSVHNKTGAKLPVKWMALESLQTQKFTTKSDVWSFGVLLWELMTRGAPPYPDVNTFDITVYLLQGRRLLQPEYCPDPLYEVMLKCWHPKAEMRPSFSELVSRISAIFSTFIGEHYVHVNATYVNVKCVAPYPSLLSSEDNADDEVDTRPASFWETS
# Text: (§1) Table 1 2-Oxo-3-phenylimidazolidine-1-carboxamide kinase inhibitors based on different scaffolds.
# VEGFR2 = VEGFR2 (Homo sapiens, UniProt P35968); assay: VEGFR2 kinase enzyme inhibition; assay type: biochemical; conditions: average of ≥3 experiments
# VEGFR2, sequence (P35968 20-1356, species assumed): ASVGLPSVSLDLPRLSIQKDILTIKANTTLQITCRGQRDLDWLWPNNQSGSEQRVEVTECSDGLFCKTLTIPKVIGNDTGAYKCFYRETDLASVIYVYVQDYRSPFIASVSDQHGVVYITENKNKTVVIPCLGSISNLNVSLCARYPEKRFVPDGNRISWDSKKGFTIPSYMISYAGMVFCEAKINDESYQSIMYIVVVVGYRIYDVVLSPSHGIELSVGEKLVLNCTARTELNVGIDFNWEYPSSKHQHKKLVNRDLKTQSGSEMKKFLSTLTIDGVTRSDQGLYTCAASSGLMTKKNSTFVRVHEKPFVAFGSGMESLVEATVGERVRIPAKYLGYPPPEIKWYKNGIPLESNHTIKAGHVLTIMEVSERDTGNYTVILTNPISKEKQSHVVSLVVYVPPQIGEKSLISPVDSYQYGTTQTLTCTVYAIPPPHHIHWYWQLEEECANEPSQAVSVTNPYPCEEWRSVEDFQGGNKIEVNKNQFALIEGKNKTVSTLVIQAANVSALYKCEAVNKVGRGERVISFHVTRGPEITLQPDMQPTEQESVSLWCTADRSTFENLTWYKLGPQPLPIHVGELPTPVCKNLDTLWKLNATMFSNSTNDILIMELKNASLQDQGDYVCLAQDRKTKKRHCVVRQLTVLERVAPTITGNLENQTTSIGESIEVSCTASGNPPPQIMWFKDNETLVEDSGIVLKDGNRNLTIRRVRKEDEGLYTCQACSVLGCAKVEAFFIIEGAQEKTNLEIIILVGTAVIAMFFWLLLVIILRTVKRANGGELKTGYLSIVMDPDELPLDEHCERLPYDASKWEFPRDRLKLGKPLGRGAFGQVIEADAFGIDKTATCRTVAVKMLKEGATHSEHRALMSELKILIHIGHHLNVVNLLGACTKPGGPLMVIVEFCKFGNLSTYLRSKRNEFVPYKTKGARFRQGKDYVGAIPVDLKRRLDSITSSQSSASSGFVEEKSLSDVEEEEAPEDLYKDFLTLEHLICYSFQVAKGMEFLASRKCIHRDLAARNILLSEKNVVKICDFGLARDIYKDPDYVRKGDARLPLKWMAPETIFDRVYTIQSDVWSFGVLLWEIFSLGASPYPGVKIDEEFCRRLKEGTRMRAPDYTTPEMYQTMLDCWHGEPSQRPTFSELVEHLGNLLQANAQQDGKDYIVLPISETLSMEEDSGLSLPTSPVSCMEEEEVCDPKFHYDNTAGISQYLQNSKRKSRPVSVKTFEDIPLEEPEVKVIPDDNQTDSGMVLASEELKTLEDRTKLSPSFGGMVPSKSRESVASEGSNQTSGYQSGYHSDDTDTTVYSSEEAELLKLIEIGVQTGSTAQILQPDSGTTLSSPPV
# Text: as §1
# Flt3 = molecular target: T2, Flt3 (Homo sapiens, UniProt P36888); assay: Millipore Kinaseprofiler, Flt3; assay type: biochemical; conditions: tested at 100 nM
# T2 construct: purchased Millipore (Kinaseprofiler assay service)
# Procedure: (§2) Compound 5 was profiled and tested at 100 nM against 24 other kinase enzymes using Millipore's Kinaseprofiler assay services.
# ALK = molecular target: T3, ALK (Homo sapiens, UniProt Q9UM73); assay: Millipore Kinaseprofiler, ALK; assay type: biochemical; conditions: tested at 100 nM
# T3 construct: purchased Millipore (Kinaseprofiler assay service)
# Procedure: as §2
# Bmx = molecular target: T4, Bmx (Homo sapiens, UniProt P51813); assay: Millipore Kinaseprofiler, Bmx; assay type: biochemical; conditions: tested at 100 nM
# T4 construct: purchased Millipore (Kinaseprofiler assay service)
# Procedure: as §2
# CHK1 = molecular target: T5, CHK1 (Homo sapiens, UniProt O14757); assay: Millipore Kinaseprofiler, CHK1; assay type: biochemical; conditions: tested at 100 nM
# T5 construct: purchased Millipore (Kinaseprofiler assay service)
# Procedure: as §2
# cKit = molecular target: T6, cKit (Homo sapiens, UniProt P10721); assay: Millipore Kinaseprofiler, cKit; assay type: biochemical; conditions: tested at 100 nM
# T6 construct: purchased Millipore (Kinaseprofiler assay service)
# Procedure: as §2
# c-Raf = molecular target: T7, c-Raf (Homo sapiens, UniProt P04049); assay: Millipore Kinaseprofiler, c-Raf; assay type: biochemical; conditions: tested at 100 nM
# T7 construct: purchased Millipore (Kinaseprofiler assay service)
# Procedure: as §2
# EphB4 = molecular target: T8, EphB4 (Homo sapiens, UniProt P54760); assay: Millipore Kinaseprofiler, EphB4; assay type: biochemical; conditions: tested at 100 nM
# T8 construct: purchased Millipore (Kinaseprofiler assay service)
# Procedure: as §2
# FAK = molecular target: T9, FAK (Homo sapiens, UniProt Q05397); assay: Millipore Kinaseprofiler, FAK; assay type: biochemical; conditions: tested at 100 nM
# T9 construct: purchased Millipore (Kinaseprofiler assay service)
# Procedure: as §2
# GSK3β = molecular target: T10, GSK3β (Homo sapiens, UniProt P49841); assay: Millipore Kinaseprofiler, GSK3β; assay type: biochemical; conditions: tested at 100 nM
# T10 construct: purchased Millipore (Kinaseprofiler assay service)
# Procedure: as §2
# Haspin = molecular target: T11, Haspin (Homo sapiens, UniProt Q8TF76); assay: Millipore Kinaseprofiler, Haspin; assay type: biochemical; conditions: tested at 100 nM
# T11 construct: purchased Millipore (Kinaseprofiler assay service)
# Procedure: as §2
# IKKβ = molecular target: T12, IKKβ (Homo sapiens, UniProt O14920); assay: Millipore Kinaseprofiler, IKKβ; assay type: biochemical; conditions: tested at 100 nM
# T12 construct: purchased Millipore (Kinaseprofiler assay service)
# Procedure: as §2
# JAK2 = molecular target: T13, JAK2 (Homo sapiens, UniProt O60674); assay: Millipore Kinaseprofiler, JAK2; assay type: biochemical; conditions: tested at 100 nM
# T13 construct: purchased Millipore (Kinaseprofiler assay service)
# Procedure: as §2
# JAK3 = molecular target: T14, JAK3 (Homo sapiens, UniProt P52333); assay: Millipore Kinaseprofiler, JAK3; assay type: biochemical; conditions: tested at 100 nM
# T14 construct: purchased Millipore (Kinaseprofiler assay service)
# Procedure: as §2
# LIMK1 = molecular target: T15, LIMK1 (Homo sapiens, UniProt P53667); assay: Millipore Kinaseprofiler, LIMK1; assay type: biochemical; conditions: tested at 100 nM
# T15 construct: purchased Millipore (Kinaseprofiler assay service)
# Procedure: as §2
# MEK1 = molecular target: T16, MEK1 (Homo sapiens, UniProt Q02750); assay: Millipore Kinaseprofiler, MEK1; assay type: biochemical; conditions: tested at 100 nM
# T16 construct: purchased Millipore (Kinaseprofiler assay service)
# Procedure: as §2
# PDK1 = molecular target: T17, PDK1 (Homo sapiens, UniProt O15530); assay: Millipore Kinaseprofiler, PDK1; assay type: biochemical; conditions: tested at 100 nM
# T17 construct: purchased Millipore (Kinaseprofiler assay service)
# Procedure: as §2
# PI3-Kinaseβ = molecular target: T18, PI3-Kinaseβ (Homo sapiens, UniProt P42338); assay: Millipore Kinaseprofiler, PI3-Kinaseβ; assay type: biochemical; conditions: tested at 100 nM
# T18 construct: purchased Millipore (Kinaseprofiler assay service)
# Procedure: as §2
# Pim-1 = molecular target: T19, Pim-1 (Homo sapiens, UniProt P11309); assay: Millipore Kinaseprofiler, Pim-1; assay type: biochemical; conditions: tested at 100 nM
# T19 construct: purchased Millipore (Kinaseprofiler assay service)
# T19 sequence (P11309 whole entry): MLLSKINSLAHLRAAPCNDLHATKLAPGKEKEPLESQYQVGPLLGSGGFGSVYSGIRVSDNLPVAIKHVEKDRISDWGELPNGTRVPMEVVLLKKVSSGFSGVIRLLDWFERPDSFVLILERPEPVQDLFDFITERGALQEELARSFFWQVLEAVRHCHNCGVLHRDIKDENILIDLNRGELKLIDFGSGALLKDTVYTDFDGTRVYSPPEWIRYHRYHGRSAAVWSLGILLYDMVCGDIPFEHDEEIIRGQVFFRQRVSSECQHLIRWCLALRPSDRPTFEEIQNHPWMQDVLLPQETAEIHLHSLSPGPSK
# Procedure: as §2
# PKBα = molecular target: T20, PKBα (Homo sapiens, UniProt P31749); assay: Millipore Kinaseprofiler, PKBα; assay type: biochemical; conditions: tested at 100 nM
# T20 construct: purchased Millipore (Kinaseprofiler assay service)
# Procedure: as §2
# Ret = molecular target: T21, Ret (Homo sapiens, UniProt P07949); assay: Millipore Kinaseprofiler, Ret; assay type: biochemical; conditions: tested at 100 nM
# T21 construct: purchased Millipore (Kinaseprofiler assay service)
# Procedure: as §2
# Ron = molecular target: T22, Ron (Homo sapiens, UniProt Q04912); assay: Millipore Kinaseprofiler, Ron; assay type: biochemical; conditions: tested at 100 nM
# T22 construct: purchased Millipore (Kinaseprofiler assay service)
# Procedure: as §2
# Tie2 = molecular target: T23, Tie2 (Homo sapiens, UniProt Q02763); assay: Millipore Kinaseprofiler, Tie2; assay type: biochemical; conditions: tested at 100 nM
# T23 construct: purchased Millipore (Kinaseprofiler assay services)
# T23 sequence (Q02763 23-1124): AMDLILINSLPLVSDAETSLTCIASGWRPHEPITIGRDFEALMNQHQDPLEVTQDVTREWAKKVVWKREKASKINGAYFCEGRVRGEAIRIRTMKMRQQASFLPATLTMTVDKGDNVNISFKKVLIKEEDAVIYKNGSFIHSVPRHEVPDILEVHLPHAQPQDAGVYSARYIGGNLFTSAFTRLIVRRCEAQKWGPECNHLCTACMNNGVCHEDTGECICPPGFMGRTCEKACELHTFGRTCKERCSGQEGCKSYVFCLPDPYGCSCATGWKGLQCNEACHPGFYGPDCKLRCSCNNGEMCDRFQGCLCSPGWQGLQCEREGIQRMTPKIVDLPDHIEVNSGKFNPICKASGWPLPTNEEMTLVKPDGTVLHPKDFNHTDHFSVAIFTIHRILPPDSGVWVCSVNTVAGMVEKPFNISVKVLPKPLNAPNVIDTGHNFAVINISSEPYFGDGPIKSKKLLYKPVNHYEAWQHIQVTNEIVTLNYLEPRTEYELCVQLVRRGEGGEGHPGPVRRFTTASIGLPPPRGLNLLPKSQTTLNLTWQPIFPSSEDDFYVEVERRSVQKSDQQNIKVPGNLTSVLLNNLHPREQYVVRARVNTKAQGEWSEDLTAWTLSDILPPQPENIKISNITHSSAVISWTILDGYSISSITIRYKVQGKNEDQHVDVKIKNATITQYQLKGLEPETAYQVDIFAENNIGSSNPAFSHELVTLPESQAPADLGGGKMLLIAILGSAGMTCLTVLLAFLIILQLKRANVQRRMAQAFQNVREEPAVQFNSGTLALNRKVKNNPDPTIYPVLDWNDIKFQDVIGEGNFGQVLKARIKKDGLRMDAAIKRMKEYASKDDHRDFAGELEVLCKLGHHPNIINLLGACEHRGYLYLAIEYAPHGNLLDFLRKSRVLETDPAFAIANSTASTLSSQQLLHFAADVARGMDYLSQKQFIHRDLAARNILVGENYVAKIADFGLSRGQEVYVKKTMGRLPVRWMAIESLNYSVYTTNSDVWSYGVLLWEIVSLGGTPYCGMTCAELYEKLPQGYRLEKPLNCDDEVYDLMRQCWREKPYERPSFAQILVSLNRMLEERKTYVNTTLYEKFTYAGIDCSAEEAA
# Procedure: as §2
# TrkB = TrkB (Homo sapiens, UniProt Q16620); assay: TrkB kinase inhibition; assay type: biochemical; conditions: tested at 10 nM
# Procedure: as §2
# [3] = Rat pharmacokinetic profile; assay type: in vivo
# Text: Compound 5 was further evaluated for its pharmacokinetic properties in the rat (Table 5).
# c-Met [4] = molecular target: T1, c-Met; assay: Millipore Kinaseprofiler, c-Met; assay type: biochemical; set-up: purchased Millipore (Kinaseprofiler assay service); conditions: tested at 100 nM
# Procedure: as §2
# TrkA [5] = test system: TrkA; set-up: method as in PMID 18646745, PMID 19509272; conditions: read-out: TrkA EC50 (reported); cited from earlier work
# [6] = p.o. dose 5.25 mg/kg, dose-normalised
smiles,measurement,setting,value
NC(=O)Nc1snc(S[C@@H]2CCCCc3ccccc32)c1C(N)=O [Compound 5n],IC50,TrkA [1],< 1 nM
O=C(NCCN1CCCC1)Nc1ccc(Oc2cccc(NC(=O)N3CCN(c4ccc(F)cc4)C3=O)c2)cn1 [Cpd 17],IC50,TrkA human enzyme,4 nM
CNC(=O)Nc1ccc(Oc2cccc(NC(=O)N3CCN(c4ccc(F)cc4)C3=O)c2)cn1 [Cpd 16],IC50,TrkA human enzyme,2 nM
CC(=O)Nc1ccc(NC(=O)Nc2cccc(NC(=O)N3CCN(c4ccccc4)C3=O)c2)cn1 [Cpd 6],inhibition at 0.03 µM,TrkA human enzyme,5%
CC(=O)Nc1ccc(Oc2ccc(Cl)c(NC(=O)N3CCN(c4ccccc4)C3=O)c2)cn1 [Cpd 12],inhibition at 0.03 µM,TrkA human enzyme,0%
CC(=O)Nc1ccc(Oc2cc(NC(=O)N3CCN(c4ccccc4)C3=O)ccc2C)cn1 [Cpd 10],inhibition at 0.03 µM,TrkA human enzyme,6%
O=C(Nc1cc(Oc2ccc(NC(=O)N3CCN(c4ccccc4)C3=O)cc2F)ncn1)N1CCCC1 [Cpd 3],IC50,c-Met [2],50 nM
same,IC50,VEGFR2,150 nM
same,inhibition at 0.1 µM,TrkA human enzyme,16%
Nc1ccc(Oc2cccc(NC(=O)N3CCN(c4ccccc4)C3=O)c2)cn1 [Cpd 13],IC50,TrkA human enzyme,20 nM
COc1ccc(NC(=O)N2CCN(c3ccccc3)C2=O)cc1Oc1ccc(NC(C)=O)nc1 [Cpd 11],inhibition at 0.03 µM,TrkA human enzyme,15%
CCn1cnc(-c2cc3nccc(Oc4ccc(NC(=O)N5CCN(c6ccccc6)C5=O)cc4F)c3s2)c1 [Cpd 1],IC50,c-Met [2],20 nM
same,IC50,VEGFR2,10 nM
same,inhibition at 0.1 µM,TrkA human enzyme,82%
CC(=O)Nc1ccc(Oc2cccc(NC(=O)N3CCN(c4ccccc4)C3=O)c2)cn1 [Cpd 5],IC50,c-Met [2],310 nM
same,IC50,VEGFR2,2500 nM
same,inhibition at 0.03 µM,TrkA human enzyme,96%
same,inhibition at 0.1 µM,TrkA human enzyme,98%
same,IC50,TrkA human enzyme,4 nM
same,inhibition at 0.1 µM,Flt3,83%
same,inhibition at 0.1 µM,ALK,< 40%
same,inhibition at 0.1 µM,Bmx,< 40%
same,inhibition at 0.1 µM,CHK1,< 40%
same,inhibition at 0.1 µM,cKit,< 40%
same,inhibition at 0.1 µM,c-Raf,< 40%
same,inhibition at 0.1 µM,EphB4,< 40%
same,inhibition at 0.1 µM,FAK,< 40%
same,inhibition at 0.1 µM,GSK3β,< 40%
same,inhibition at 0.1 µM,Haspin,< 40%
same,inhibition at 0.1 µM,IKKβ,< 40%
same,inhibition at 0.1 µM,JAK2,< 40%
same,inhibition at 0.1 µM,JAK3,< 40%
same,inhibition at 0.1 µM,LIMK1,< 40%
same,inhibition at 0.1 µM,MEK1,< 40%
same,inhibition at 0.1 µM,PDK1,< 40%
same,inhibition at 0.1 µM,PI3-Kinaseβ,< 40%
same,inhibition at 0.1 µM,Pim-1,< 40%
same,inhibition at 0.1 µM,PKBα,< 40%
same,inhibition at 0.1 µM,Ret,< 40%
same,inhibition at 0.1 µM,Ron,< 40%
same,inhibition at 0.1 µM,Tie2,< 40%
same,inhibition at 0.01 µM,TrkB,40%
same,clearance,"[3]; in vivo, iv, i.v. dose 2.58 mg/kg, read-out: Cl i.v. (converted)",55 mL/min/kg
same,half-life,"[3]; in vivo, iv, i.v. dose 2.58 mg/kg, read-out: T1/2, i.v. (converted)",90 min
same,Vd,"[3]; in vivo, iv, i.v. dose 2.58 mg/kg, read-out: Vss i.v.",3.7 L/kg
same,bioavailability,"[3]; in vivo, oral, i.v. 2.58 mg/kg, p.o. 5.25 mg/kg",99%
same,Tmax,"[3]; in vivo, po, p.o. dose 5.25 mg/kg",4 h
same,"N. AUC, p.o.",[3]; [6],0.83 μM.h/(mg/kg)
same,"N. C max, p.o.",[3]; [6],0.08 μM/(mg/kg)
same,inhibition at 0.1 µM,c-Met [4],< 40%
O=C(Nc1cc(Oc2ccc(NC(=O)N3CCN(c4ccccc4)C3=O)cc2F)ccn1)N1CCCC1 [Cpd 4],IC50,c-Met [2],30 nM
same,IC50,VEGFR2,230 nM
same,inhibition at 0.1 µM,TrkA human enzyme,49%
CNC(=O)Nc1ccc(Oc2cccc(NC(=O)N3CCN(c4ccccc4)C3=O)c2)cn1 [Cpd 15],IC50,TrkA human enzyme,5 nM
COc1cc2nccc(Oc3ccc(NC(=O)N4CCN(c5ccccc5)C4=O)cc3F)c2cc1OC [Cpd 2],IC50,c-Met [2],30 nM
same,IC50,VEGFR2,10 nM
same,inhibition at 0.1 µM,TrkA human enzyme,94%
CC(=O)Nc1ccc(Oc2cccc(NC(=O)N3CCN(c4ccc(F)cc4)C3=O)c2)cn1 [Cpd 14],IC50,TrkA human enzyme,3 nM
CC(=O)Nc1ccc(C#Cc2cccc(NC(=O)N3CCN(c4ccccc4)C3=O)c2)cn1 [Cpd 7],inhibition at 0.03 µM,TrkA human enzyme,16%
CCNC(=O)OC(C)C1c2ccccc2-c2c3c(c4c([nH]c5ccccc54)c21)CNC3=O (stereo not shown) [Compound 12a],IC50,TrkA [1],8 nM
CC(C)Oc1cc(Nc2nc(N[C@@H](C)c3ccc(F)cc3)ncc2Cl)n[nH]1 [AZ-23],IC50,TrkA [1],< 3 nM
same,EC50,TrkA [5],1 nM
Cc1ccc(Sc2cnc(Nc3cccc(Br)n3)s2)cc1C(=O)N1CCN(C(=O)CN)CC1 [Compound 20h],IC50,TrkA [1],0.6 nM
